In US20080293686A1, “SEMI-SOLID SYSTEMS CONTAINING AZETIDINE DERIVATIVES” (AVENTIS PHARMA S.A., priority 2003, published 2008):
Values after ≈ are worked out from the molar mass of the structure shown.

Assays:
[1] = Solubility of compound (Ic) in lipids and other pharmaceutical cosolvents; assay type: physicochemical; conditions: in Soyabean oil
From the text: The first step was to determine the solubility of compound (Ic) in an exhaustive series of lipids and other pharmaceutical cosolvents including vegetable oils, lipidic components, surfactants, hydrophilic components and phospholipids. The protocol of the solubility measurement is reported in the annex.

[2] = Colloidal stability and self-emulsifying properties after incubation with simulated gastrointestinal fluids and filtration; assay type: physicochemical; conditions: diluted 1:50, 2 hours at 37° C., theoretical concentration 200 μg/ml
Experimental: The following simulated media were selected for the present experiment: • Gastric medium USP, pH 1.2 • Fasted intestinal medium, pH 6.8 (ref. Dressman et al., Pharm. Res., 1998) • Fed intestinal medium, pH 5 (ref. Dressman et al., Pharm. Res., 1998)
All Compound (Ic) formulations (400 mg) were diluted 1:50 in the gastric, fasted intestinal or fed intestinal medium (20 ml), then incubated during 2 hours at 37° C. under mechanical stirring (300 rpm). The drug concentration was determined by HPLC before and after filtration (2 μm).
The aim of this second part of the study was to evaluate the colloidal stability and the self-emulsifying properties of the emulsion/microemulsion/micellar solution of the (Ic) formulation after incubation in the GI media. Thus, the sample was filtered onto 2 μm (able to retain oil droplets >2 μm, as well as drug crystals >2 μm) then dosed by HPLC. The filter size (2 μm) has been chosen after a screening with different filter sizes (0.45, 2 and 5 μm) tested on the aqueous solution of the drug. […] In summary, the filtered fraction was approximately 1% in the gastric medium, 2% in the fasted intestinal medium, 4.5-5.5% in the fed intestinal medium.

CS(=O)(=O)C(=C1CN(C(c2ccc(Cl)cc2)c2ccc(Cl)cc2)C1)c1cc(F)cc(F)c1 [Compound (Ic)]
solubility [1]: 31.8 mg/mL (≈ 64.3 mM) | Compound (Ic) recovered after filtration (2 μm) after previous incubation with GI media ([2]; Fasted intestinal pH 6.8): 4.2 µg/mL | Compound (Ic) recovered after filtration (2 μm) after previous incubation with GI media ([2]; Fed intestinal pH 5): 8.8 µg/mL | Compound (Ic) recovered after filtration (2 μm) after previous incubation with GI media ([2]; Gastric medium): 1.9 µg/mL
